US10072023B2, “Diarylethene compounds and uses thereof” (SWITCH MATERIALS, INC., priority 2011, dated 2018)

Assay: Absorbance at photostationary state (PSS) under simulated sunlight or 365 nm light
Assay type: physicochemical
Set-up: λ max: unit not given here
Conditions: for Absorbance at PSS, 365 nm: 365 nm light source; for Absorbance at PSS, 365 nm / Absorbance at PSS, full / Absorbance at PSS, +UV / λ max: 2.0×10^−5 M in triglyme; for Absorbance at PSS, full: simulated sunlight (QSUN solar simulator), no UV blocking film; for Absorbance at PSS, +UV: simulated sunlight with UV blocking film (cutoff 370 nm); for sensitivity index: ratio of PSS under 365 nm light to PSS under full spectrum light (without UV blocking film); for λ max: wavelength of maximum absorbance in the visible range, ring-closed isoform
Procedure: Absorbance at a PSS for selected compounds was measured at 2.0×10^−5 M in triglyme in the absence (full) or presence (+UV) of a UV blocking film with a UV cutoff wavelength of 370 nm (10% transmission at 370 nm), using simulated sunlight (QSUN solar simulator) as a light source, or a 365 nm light source; these PSS are reported in Tables 1.5. […] “Switch” refers to the ability (yes or no) of the compound to be reversibly converted under photochromic and electrochromic conditions between a ring-open isomer and ring-closed isomer.
A sensitivity index (SI) is a ratio of the PSS under 365 nm light to the PSS under full spectrum light (without UV blocking film). SI is an indicator of the sensitivity of the compound to the composition of the incident light (a change in the ratio of UV and visible components)—photochemical ring-opening is induced by a portion of the visible light spectrum.
Photostationary State (PSS) UV/Vis spectra are obtained using an OceanOptics™ Spectrophotometer until absorption in the visible region of the spectrum stabilizes. A 2×10^−5M solution of compound in solvent is prepared, and photofaded using visible light until absorption in the visible region of the spectrum stabilizes. The sample is then irradiated with simulated sunlight (QSUN SS-150 Solar Simulator with xenon arc lamp) until the absorption spectrum stabilizes. To obtain PSS in the presence of a UV blocking film, a second sample is prepared and irradiated as described, with a UV blocking film inserted in the light path when irradiating.

Row | SMILES | Absorbance at PSS, 365 nm | Absorbance at PSS, full | Absorbance at PSS, +UV | sensitivity index | λ max
1 | CC(C)(C)c1ccc(-c2cc(C3=C(c4cc(-c5ccc(C(C)(C)C)s5)sc4-c4ccc(OCCCCC(=O)O)cc4)C(F)(F)C(F)(F)C3(F)F)c(-c3ccc(OCCCCC(=O)O)cc3)s2)s1 [S141, 5,5′-(4,4′-(4,4′-(perfluorocyclopent-1-ene-1,2-diyl)bis(5′-tert-butyl-2,2′-bithiophene-5,4-diyl))bis(4,1-phenylene)bis(oxy))dipentanoic acid] | 0.377 | 0.282 | 0.183 | – | –
2 | COc1ccc2c(C3=C(c4c(-c5ccc(-c6ccc(C(C)(C)C)s6)s5)oc5cc(OC)ccc45)C(F)(F)C(F)(F)C3(F)F)c(-c3ccc(-c4ccc(C(C)(C)C)s4)s3)oc2c1 [S152, 3,3′-(perfluorocyclopent-1-ene-1,2-diyl)bis(2-(5′-(tert-butyl)-[2,2′-bithiophen]-5-yl)-6-methoxybenzofuran)] | 0.263 | 0.069 | 0.06 | 3.81 | 522
3 | Cc1csc(-c2cc(C3=C(c4cc(-c5cc(C)cs5)sc4-c4cc(C)cs4)C(F)(F)C(F)(F)C3(F)F)c(-c3cc(C)cs3)s2)c1 [S149, 3′,3″″-(perfluorocyclopent-1-ene-1,2-diyl)bis(4,4″-dimethyl-2,2′:5′,2″-terthiophene)] | 0.339 | 0.241 | 0.169 | 1.41 | 647
4 | FC1(F)C(c2nc(-c3ccccc3)sc2-c2ccccc2)=C(c2nc(-c3ccccc3)sc2-c2ccccc2)C(F)(F)C1(F)F [S035, 4,4′-(perfluorocyclopent-1-ene-1,2-diyl)bis(2,5-diphenylthiazole)] | 0.416 | 0.05 | 0.016 | 8.32 | 540
5 | Cc1cc(-c2sc(-c3sc(C)c(C)c3C)cc2C2=C(c3cc(-c4sc(C)c(C)c4C)sc3-c3cc(C)c(C)s3)C(F)(F)C(F)(F)C2(F)F)sc1C [S148, 4′,4″″-(perfluorocyclopent-1-ene-1,2-diyl)bis(3,4,4″,5,5″-pentamethyl-2,2′:5′,2″-terthiophene)] | 0.244 | 0.15 | 0.092 | 1.63 | 650
6 | CC(C)(C)c1ccc(-c2cc(C3=C(c4cc(-c5ccc(C(C)(C)C)s5)sc4-c4cccs4)C(F)(F)C(F)(F)C3(F)F)c(-c3cccs3)s2)s1 [S170, 4,4′-(perfluorocyclopent-1-ene-1,2-diyl)bis(5′-tert-butyl-5-(thiopheyl)-2,2′-bithiophene)] | – | 0.287 | 0.182 | – | 645
7 | FC1(F)C(c2cc(-c3ccc(Cl)s3)sc2-c2ccc(Cl)s2)=C(c2cc(-c3ccc(Cl)s3)sc2-c2ccc(Cl)s2)C(F)(F)C1(F)F [S026, 3′,3″″-(perfluorocyclopent-1-ene-1,2-diyl)bis(5,5″-dichloro-2,2′:5′,2″-terthiophene)] | 0.383 | 0.251 | 0.196 | 1.53 | 645
8 | CC(C)(C)COc1ccc(-c2cc(C3=C(c4cc(-c5ccc(OCC(C)(C)C)cc5)sc4-c4ccc(OCC(C)(C)C)cc4)C(F)(F)C(F)(F)C3(F)F)c(-c3ccc(OCC(C)(C)C)cc3)s2)cc1 [S095, 3,3′-(perfluorocyclopent-1-ene-1,2-diyl)bis(2,5-bis(4-(neopentyloxy)phenyl)thiophene)] | 0.279 | 0.16 | 0.086 | 1.74 | 625
9 | c1ccc(-c2cc(-c3nc(-c4ccccc4)sc3-c3cc(-c4ccccc4)sc3-c3ccccc3)c(-c3ccccc3)s2)cc1 [S055, 4,5-bis(2,5-diphenylthiophen-3-yl)-2-phenylthiazole] | 0.191 | 0.042 | 0.008 | 4.55 | 640
10 | CC(C)Oc1ccc(-c2cc(C3=C(c4cc(-c5ccc(OC(C)C)cc5)sc4-c4ccc(OC(C)C)cc4)C(F)(F)C(F)(F)C3(F)F)c(-c3ccc(OC(C)C)cc3)s2)cc1 [S092, 3,3′-(perfluorocyclopent-1-ene-1,2-diyl)bis(2,5-bis(4-isopropoxyphenyl)thiophene)] | 0.307 | 0.162 | 0.093 | 1.90 | 627
11 | COc1cc(OC)cc(-c2cc(C3=C(c4cc(-c5cc(OC)cc(OC)c5)sc4-c4cc(OC)cc(OC)c4)C(F)(F)C(F)(F)C3(F)F)c(-c3cc(OC)cc(OC)c3)s2)c1 [S097, 3,3′-(perfluorocyclopent-1-ene-1,2-diyl)bis(2,5-bis(3,5-dimethoxyphenyl)thiophene)] | 0.206 | 0.073 | 0.029 | 2.82 | 611
12 | CC(C)(C)c1ccc(-c2cc(C3=C(c4cc(-c5ccc(C(C)(C)C)s5)sc4-c4ccc(OCCCCC#N)cc4)C(F)(F)C(F)(F)C3(F)F)c(-c3ccc(OCCCCC#N)cc3)s2)s1 [S139, 5,5′-(((4,4″-(perfluorocyclopent-1-ene-1,2-diyl)bis(5′-(tert-butyl)-[2″,2″′-bithiophene]-5″,4-diyl))bis(4,1phenylene))bis(oxy))dipentanenitrile] | 0.403 | 0.322 | 0.216 | – | –
13 | CC(C)(C)c1ccc(-c2cc(C3=C(c4cc(-c5ccc(C(C)(C)C)s5)sc4-c4ccc(C(=O)O)s4)C(F)(F)C(F)(F)C3(F)F)c(-c3ccc(C(=O)O)s3)s2)s1 [S119] | 0.405 | 0.343 | 0.295 | – | –
14 | N#Cc1ccc(-c2cc(C3=C(c4cc(-c5ccc(C#N)cc5)sc4-c4ccc(C#N)cc4)C(F)(F)C(F)(F)C3(F)F)c(-c3ccc(C#N)cc3)s2)cc1 [S074, 3,3′-(perfluorocyclopent-1-ene-1,2-diyl)bis(2,5-bis(4-cyanophenyl)thiophene)] | 0.189 | 0.069 | 0.024 | 2.74 | 620
15 | Cc1ccc(-c2oc3ccccc3c2C2=C(c3c(-c4ccc(C)s4)oc4ccccc34)C(F)(F)C(F)(F)C2(F)F)s1 [S137, 3,3′-(perfluorocyclopent-1-ene-1,2-diyl)bis(2-(5-methylthiophen-2-yl)benzofuran)] | 0.15 | 0.033 | 0.016 | 4.55 | 497
16 | COc1cc2oc(-c3ccc(C(C)(C)C)cc3)c(C3=C(c4c(-c5ccc(C(C)(C)C)cc5)oc5cc(OC)c(OC)cc45)C(F)(F)C(F)(F)C3(F)F)c2cc1OC [S164, 3,3′-(perfluorocyclopent-1-ene-1,2-diyl)bis(2-(4-(tert-butyl)phenyl)-5,6-dimethoxybenzofuran)] | 0.546 | 0.235 | 0.134 | 2.32 | 554
17 | Oc1ccc(-c2cc(C3=C(c4cc(-c5ccc(O)cc5)sc4-c4ccc(O)cc4)C(F)(F)C(F)(F)C3(F)F)c(-c3ccc(O)cc3)s2)cc1 [S084, 3,3′-(perfluorocyclopent-1-ene-1,2-diyl)bis(2,5-bis(4-hydroxyphenyl)thiophene)] | 0.23 | 0.09 | 0.051 | 2.56 | 625
